# Data: patent US5073540A, “Composite binding site drugs” (Receptron, priority 1989, dated 1991)
# Where a SMILES comes first, the peptide text is derived from it.
# How the values were obtained:
# [1] = target: T1, purified human IR (Homo sapiens, UniProt P06213); test: IR autophosphorylation (tyrosine kinase activity of purified insulin receptor); type: biochemical; details: for EC50: insulin-induced, 95% confidence intervals printed: K^k 2.2-7.2 μM, D^k 0.3-2.2 μM; for inhibition of basal activity of IR: no insulin added
# T1 construct: from tissue; host or cells: human placenta
# T1 sequence (P06213 28-758 limits assumed): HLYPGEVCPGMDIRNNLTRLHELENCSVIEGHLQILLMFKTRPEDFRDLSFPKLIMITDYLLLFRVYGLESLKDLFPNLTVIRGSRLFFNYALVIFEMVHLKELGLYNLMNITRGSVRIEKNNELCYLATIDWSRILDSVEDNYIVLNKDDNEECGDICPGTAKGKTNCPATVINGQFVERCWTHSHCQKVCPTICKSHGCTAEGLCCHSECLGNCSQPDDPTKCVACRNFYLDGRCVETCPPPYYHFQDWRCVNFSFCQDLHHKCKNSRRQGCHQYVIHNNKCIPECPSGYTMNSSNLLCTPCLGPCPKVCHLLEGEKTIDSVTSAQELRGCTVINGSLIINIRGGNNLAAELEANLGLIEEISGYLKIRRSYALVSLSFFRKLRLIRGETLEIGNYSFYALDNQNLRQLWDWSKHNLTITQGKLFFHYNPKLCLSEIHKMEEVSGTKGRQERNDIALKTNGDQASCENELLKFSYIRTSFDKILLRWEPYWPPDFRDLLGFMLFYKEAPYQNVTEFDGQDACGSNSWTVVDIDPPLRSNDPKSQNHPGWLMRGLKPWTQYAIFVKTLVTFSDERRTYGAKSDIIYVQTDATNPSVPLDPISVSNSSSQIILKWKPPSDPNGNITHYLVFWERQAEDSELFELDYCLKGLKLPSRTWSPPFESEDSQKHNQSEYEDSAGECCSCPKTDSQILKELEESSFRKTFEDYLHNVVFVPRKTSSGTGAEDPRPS
# T1 sequence (P06213 763-1382 limits assumed): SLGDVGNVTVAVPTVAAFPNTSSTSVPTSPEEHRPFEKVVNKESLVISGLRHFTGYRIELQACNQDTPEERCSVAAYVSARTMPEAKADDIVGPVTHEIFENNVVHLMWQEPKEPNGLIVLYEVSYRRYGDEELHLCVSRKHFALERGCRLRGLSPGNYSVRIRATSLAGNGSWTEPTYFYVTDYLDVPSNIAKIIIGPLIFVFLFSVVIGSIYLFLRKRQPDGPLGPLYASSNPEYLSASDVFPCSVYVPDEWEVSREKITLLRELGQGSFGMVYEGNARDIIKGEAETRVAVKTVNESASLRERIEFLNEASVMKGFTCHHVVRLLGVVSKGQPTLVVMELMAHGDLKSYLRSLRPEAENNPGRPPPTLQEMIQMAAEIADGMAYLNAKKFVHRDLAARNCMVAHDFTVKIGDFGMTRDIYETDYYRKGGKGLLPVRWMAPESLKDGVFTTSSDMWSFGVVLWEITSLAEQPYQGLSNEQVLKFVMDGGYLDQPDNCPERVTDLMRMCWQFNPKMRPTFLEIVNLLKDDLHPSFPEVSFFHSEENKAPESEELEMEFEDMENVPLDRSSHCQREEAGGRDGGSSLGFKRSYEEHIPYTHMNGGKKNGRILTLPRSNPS
# Protocol: When peptide was used, it was added in 5.0 μl, the volume adjusted to 20 μl by adding buffer, and the mixture incubated (1 hr, 4° C.). After incubation, 10 μl of a solution containing 2.5 μCi ^32 P-labeled ATP (3,000 Ci/mmol; γ-labeled; Amersham), 50 mM HEPES, pH 7.6, 150 mM NaCl, 0.1% Triton X-100, 37.5 μM unlabeled ATP, 15 mM MgCl2, and 6 MnCl2 was added to a final volume of 30 μl. The mixture was then incubated for 30 min. at 24° C.
# After incubation, 15 μl sample buffer was added, and the sample was boiled for 5 min., and run on 10% SDS-PAGE overnight. The gel was dried, and autoradiograms processed with an exposure time of 5-10 hr. For quantitative estimates the β-subunit band of IR and the IRKD bands were cut out and counted dry (Cerenkov) in a scintillation counter.
# [2] = Peptide depletion (degradation or adsorption) during the experimental period, by HPLC and 125I-label; type: physicochemical; details: HPLC and 125I-labeled peptide; concentrations above 0.1 μM
Compound,EC50 [1] [nM],inhibition of basal activity of IR [1],depletion (degradation or adsorption) during the experimental period [2]
"CC[C@H](C)[C@H](NC(=O)[C@H](CCC(N)=O)NC(=O)[C@@H](NC(=O)[C@H](CCC(=O)O)NC(=O)[C@H](CCCNC(=N)N)NC(=O)[C@@H](N)CCC(=O)O)[C@@H](C)O)C(=O)N[C@@H](C)C(=O)N[C@@H](CCCCN)C(=O)NCC(=O)N[C@@H](CC(N)=O)C(=O)N[C@@H](CCC(=O)O)C(=O)N[C@@H](CCC(N)=O)C(=O)N[C@@H](CO)C(=O)N[C@@H](Cc1ccccc1)C(=O)N[C@@H](CCCNC(=N)N)C(=O)N[C@H](C(=O)N[C@@H](CC(=O)O)C(=O)N[C@@H](CC(C)C)C(=O)N[C@@H](CCCNC(=N)N)C(=O)N[C@H](C(=O)N[C@@H](CC(C)C)C(=O)N[C@@H](CC(C)C)C(=O)N[C@@H](CCCNC(=N)N)C(=O)N[C@@H](Cc1ccc(O)cc1)C(=O)N[C@@H](Cc1ccc(O)cc1)C(=O)O)[C@@H](C)O)C(C)C [D^k-(61-85), ERETQIAKGNEQSFRVDLRTLLRYY] (H-ERETQIAKGNEQSFRVDLRTLLRYY-OH)",1200,24-40%,–
CC[C@H](C)[C@H](NC(=O)[C@H](CCC(N)=O)NC(=O)[C@@H](NC(=O)[C@H](CC(N)=O)NC(=O)[C@H](CCCNC(=N)N)NC(=O)[C@@H](N)CCC(=O)O)[C@@H](C)O)C(=O)N[C@@H](C)C(=O)N[C@@H](CCCCN)C(=O)NCC(=O)N[C@@H](CC(N)=O)C(=O)N[C@@H](CCC(=O)O)C(=O)N[C@@H](CCC(N)=O)C(=O)N[C@H](C(=O)N[C@@H](Cc1ccccc1)C(=O)N[C@@H](CCCNC(=N)N)C(=O)N[C@H](C(=O)N[C@@H](CC(N)=O)C(=O)N[C@@H](CC(C)C)C(=O)N[C@@H](CCCNC(=N)N)C(=O)N[C@H](C(=O)N[C@@H](C)C(=O)N[C@@H](CC(C)C)C(=O)N[C@@H](CCCNC(=N)N)C(=O)N[C@@H](Cc1ccc(O)cc1)C(=O)N[C@@H](Cc1ccc(O)cc1)C(=O)O)[C@@H](C)O)C(C)C)[C@@H](C)CC [K^k-(61-85)] (H-ERNTQIAKGNEQIFRVNLRTALRYY-OH),4000,24-40%,–
dynorphin A,–,–,No significant depletion
